Assay [1] deals with JAK2 (Homo sapiens (Human), UniProt O60674). Put plainly: Biochemical JAK kinase assay (LanthaScreen), JAK2. The settings on record: for Ki: read-out: JAK2 pKi (converted). The method, boiled down: (§1)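 LanthaScreen format: phospho-STAT1 (pTyr701) detected with 2 nM Tb antibody after 10 mM EDTA quench. Kinase step used Km-level ATP and 200 nM STAT1 peptide, 1 h at ambient after 1 h pre-incubation. Inhibition fitted to IC50, reported as pKi.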

Assay [2] has as its target JAK1 (Homo sapiens (Human), UniProt P23458). Briefly: Biochemical JAK kinase assay (LanthaScreen), JAK1. The following applies: for Ki: read-out: JAK1 pKi (converted). Summed up: as §1
For orientation: TR-FRET usually uses a lanthanide donor and a delayed reading to cut background.

Assay [3] deals with JAK3 (Homo sapiens (Human), UniProt P52333). Briefly: Biochemical JAK kinase assay (LanthaScreen), JAK3. The settings on record: read-out: JAK3 pKi (converted). The method, boiled down:
as §1

In assay [4] the target is TYK2 (Homo sapiens (Human), UniProt P29597). Briefly: Biochemical JAK kinase assay (LanthaScreen), Tyk2. The following applies: read-out: Tyk2 pKi (converted). Summed up: as §1
Sequence of TYK2 (P29597 whole entry): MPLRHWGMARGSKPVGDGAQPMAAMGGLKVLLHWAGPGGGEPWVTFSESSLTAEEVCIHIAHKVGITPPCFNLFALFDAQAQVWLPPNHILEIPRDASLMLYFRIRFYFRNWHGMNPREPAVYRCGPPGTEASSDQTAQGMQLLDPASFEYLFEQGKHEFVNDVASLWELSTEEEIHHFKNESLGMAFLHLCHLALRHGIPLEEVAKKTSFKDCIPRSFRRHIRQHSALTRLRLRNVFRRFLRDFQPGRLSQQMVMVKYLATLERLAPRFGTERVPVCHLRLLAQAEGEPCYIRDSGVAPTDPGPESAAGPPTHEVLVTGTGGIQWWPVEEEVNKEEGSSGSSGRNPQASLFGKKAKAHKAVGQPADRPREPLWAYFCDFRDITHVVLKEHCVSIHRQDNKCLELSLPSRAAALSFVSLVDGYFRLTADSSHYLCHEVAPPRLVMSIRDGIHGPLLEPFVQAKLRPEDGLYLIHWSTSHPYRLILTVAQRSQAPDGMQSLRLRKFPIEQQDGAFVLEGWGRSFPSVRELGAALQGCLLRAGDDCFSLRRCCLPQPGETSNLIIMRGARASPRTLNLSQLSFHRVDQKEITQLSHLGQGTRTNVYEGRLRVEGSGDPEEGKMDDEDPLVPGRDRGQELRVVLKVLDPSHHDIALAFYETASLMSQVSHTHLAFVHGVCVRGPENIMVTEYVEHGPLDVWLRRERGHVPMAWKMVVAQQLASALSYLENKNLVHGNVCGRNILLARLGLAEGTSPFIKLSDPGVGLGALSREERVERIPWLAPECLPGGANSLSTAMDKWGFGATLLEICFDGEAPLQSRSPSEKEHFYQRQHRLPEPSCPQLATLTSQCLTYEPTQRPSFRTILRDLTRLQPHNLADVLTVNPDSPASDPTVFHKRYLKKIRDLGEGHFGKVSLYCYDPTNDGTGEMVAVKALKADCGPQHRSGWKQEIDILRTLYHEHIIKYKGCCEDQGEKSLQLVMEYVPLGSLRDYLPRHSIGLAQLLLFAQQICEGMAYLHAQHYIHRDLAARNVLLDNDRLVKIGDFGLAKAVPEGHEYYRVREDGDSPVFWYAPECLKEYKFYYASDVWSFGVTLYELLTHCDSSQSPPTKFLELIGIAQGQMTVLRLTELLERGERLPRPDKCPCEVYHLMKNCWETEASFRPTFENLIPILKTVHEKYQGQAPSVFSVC
Assay [5] has as its system IL-13 induced STAT6 phosphorylation in BEAS-2B human lung epithelial cells. Briefly: Cellular JAKI potency assay (BEAS-2B). The format is cell-based. The following applies: Homo sapiens, BEAS-2B, BEAS-2B cells, read-out: BEAS2B pIC50 (converted). The method, boiled down: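 BEAS-2B cells were preincubated with compound (0.1% DMSO) in HBSS/HEPES/BSA for 1 h at 37 °C, then stimulated with IL-13 (80 ng/mL before addition) for 30 min. After lysis, pSTAT6 (Tyr641) was quantified by AlphaLISA SureFire; IC50 from a 4-parameter fit of percent inhibition, reported as pIC50.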

Sequence of JAK3 (P52333 whole entry): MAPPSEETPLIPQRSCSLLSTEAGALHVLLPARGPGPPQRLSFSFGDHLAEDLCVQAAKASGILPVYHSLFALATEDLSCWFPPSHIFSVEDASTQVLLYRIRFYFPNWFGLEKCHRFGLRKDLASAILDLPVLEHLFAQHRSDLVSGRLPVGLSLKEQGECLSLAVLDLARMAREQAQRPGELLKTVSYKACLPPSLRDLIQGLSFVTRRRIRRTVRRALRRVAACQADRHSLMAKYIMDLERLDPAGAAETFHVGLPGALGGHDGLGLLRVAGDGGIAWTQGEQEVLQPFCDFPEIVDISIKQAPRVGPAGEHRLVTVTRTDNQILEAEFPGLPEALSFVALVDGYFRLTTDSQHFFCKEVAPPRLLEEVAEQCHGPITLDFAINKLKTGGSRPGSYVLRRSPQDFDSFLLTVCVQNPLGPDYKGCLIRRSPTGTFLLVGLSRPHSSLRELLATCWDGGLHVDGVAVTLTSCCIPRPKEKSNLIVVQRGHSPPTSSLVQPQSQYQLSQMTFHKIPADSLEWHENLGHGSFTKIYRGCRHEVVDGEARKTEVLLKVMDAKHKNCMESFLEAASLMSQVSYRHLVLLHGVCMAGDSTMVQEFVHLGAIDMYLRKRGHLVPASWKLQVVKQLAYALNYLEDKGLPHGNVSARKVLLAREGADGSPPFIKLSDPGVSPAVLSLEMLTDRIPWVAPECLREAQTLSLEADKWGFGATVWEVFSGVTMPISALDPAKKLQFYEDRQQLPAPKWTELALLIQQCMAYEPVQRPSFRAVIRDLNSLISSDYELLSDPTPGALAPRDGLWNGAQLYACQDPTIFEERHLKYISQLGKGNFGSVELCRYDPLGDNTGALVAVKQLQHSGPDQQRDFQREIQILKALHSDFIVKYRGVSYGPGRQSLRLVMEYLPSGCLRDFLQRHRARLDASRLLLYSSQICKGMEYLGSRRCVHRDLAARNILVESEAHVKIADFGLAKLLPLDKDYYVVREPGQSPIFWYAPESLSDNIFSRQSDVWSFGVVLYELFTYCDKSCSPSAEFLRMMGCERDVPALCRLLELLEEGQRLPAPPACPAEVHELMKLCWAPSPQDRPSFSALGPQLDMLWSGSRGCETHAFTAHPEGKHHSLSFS
Sequence of JAK2 (O60674 whole entry): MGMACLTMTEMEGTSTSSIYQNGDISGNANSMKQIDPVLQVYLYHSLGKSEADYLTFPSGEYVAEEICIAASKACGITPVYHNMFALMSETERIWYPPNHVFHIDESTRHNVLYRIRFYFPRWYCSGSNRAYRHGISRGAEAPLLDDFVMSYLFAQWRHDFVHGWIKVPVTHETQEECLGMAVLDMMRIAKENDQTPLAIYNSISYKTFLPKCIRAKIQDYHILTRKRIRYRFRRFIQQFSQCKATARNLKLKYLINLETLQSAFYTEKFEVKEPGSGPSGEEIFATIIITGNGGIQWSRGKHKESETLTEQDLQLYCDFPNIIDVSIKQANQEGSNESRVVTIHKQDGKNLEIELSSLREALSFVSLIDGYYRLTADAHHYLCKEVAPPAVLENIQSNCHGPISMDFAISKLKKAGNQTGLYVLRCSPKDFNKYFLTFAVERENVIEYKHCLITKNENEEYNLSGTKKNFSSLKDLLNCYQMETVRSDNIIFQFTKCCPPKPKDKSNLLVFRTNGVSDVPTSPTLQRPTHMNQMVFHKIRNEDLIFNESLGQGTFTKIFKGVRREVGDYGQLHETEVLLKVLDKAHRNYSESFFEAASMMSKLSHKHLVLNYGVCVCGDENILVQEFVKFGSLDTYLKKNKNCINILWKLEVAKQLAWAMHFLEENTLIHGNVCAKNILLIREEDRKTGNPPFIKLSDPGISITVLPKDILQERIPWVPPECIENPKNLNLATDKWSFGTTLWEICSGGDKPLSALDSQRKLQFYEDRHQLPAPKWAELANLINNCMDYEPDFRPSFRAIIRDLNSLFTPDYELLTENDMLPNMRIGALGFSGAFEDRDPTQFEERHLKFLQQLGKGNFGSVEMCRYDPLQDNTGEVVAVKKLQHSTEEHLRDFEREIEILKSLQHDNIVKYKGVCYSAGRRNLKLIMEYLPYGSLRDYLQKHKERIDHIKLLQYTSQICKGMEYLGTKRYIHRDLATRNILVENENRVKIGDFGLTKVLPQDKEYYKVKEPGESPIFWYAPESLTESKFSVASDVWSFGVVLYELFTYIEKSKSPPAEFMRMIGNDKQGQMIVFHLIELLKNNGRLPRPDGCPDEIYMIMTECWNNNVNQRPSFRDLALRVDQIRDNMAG
Sequence of JAK1 (P23458 whole entry): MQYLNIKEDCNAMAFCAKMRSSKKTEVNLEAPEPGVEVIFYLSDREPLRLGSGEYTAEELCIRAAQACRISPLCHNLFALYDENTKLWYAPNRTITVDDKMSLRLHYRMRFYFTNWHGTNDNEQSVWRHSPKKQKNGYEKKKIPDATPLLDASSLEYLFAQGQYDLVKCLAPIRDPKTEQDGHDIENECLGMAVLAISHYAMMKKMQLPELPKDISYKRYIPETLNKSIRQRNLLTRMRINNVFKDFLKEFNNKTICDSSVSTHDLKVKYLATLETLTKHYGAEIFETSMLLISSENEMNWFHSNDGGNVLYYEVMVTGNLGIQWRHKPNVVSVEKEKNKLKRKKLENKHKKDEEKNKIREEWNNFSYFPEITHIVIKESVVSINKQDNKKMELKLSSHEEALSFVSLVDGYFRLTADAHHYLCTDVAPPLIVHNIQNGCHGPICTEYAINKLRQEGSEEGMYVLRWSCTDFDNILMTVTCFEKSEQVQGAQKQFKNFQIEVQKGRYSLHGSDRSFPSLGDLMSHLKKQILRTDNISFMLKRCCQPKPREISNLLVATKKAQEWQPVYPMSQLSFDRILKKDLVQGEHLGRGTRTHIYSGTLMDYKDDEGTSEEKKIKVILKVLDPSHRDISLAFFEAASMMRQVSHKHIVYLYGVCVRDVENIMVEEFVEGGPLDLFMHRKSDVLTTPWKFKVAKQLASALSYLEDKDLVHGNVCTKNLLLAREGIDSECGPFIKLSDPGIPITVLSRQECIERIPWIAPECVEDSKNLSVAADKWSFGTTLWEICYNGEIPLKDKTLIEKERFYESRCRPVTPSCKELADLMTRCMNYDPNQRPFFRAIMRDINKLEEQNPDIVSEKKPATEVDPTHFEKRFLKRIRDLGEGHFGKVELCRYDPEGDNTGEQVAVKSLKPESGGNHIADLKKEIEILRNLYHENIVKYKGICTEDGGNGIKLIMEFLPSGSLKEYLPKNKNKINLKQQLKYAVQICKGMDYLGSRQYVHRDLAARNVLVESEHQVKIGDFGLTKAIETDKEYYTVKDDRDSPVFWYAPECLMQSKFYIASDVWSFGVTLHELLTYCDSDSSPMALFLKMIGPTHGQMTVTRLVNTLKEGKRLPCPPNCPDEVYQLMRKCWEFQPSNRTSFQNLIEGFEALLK

On to `CCc1cc(O)ccc1-c1ccc2c(-c3nc(C4=CCN(C[C@@H]5COCCN5)C4)c[nH]3)n[nH]c2c1F` [Example 205], for which the Ki in assay [1] is 0.1 to 1 nM; in assay [2] it was 0.1 to 1 nM; in assay [3], 0.1 to 1 nM; in assay [4], 1 to 10 nM. The IC50 in assay [5] was 10 to 31.6 nM.
On to `CCc1cc(O)ccc1-c1ccc2c(-c3nc(C4=CCN(C5CCCN(C)C5)CC4)c[nH]3)n[nH]c2c1F` (centres unmarked) [Example 212], for which the “JAK2 pKi” value in assay [1] is “A (A represents a pKi value ≥10 (Ki≤0.1 nM))”. For the same compound, the Ki in assay [2] was 0.1 to 1 nM; in assay [3], 0.1 to 1 nM; in assay [4], 1 to 10 nM. The IC50 in assay [5] was 10 to 31.6 nM.
On to `CCc1cc(O)ccc1-c1ccc2c(-c3nc(C4=CCN(C5COC5)CC4)c[nH]3)n[nH]c2c1F` [Example 64], for which the Ki in assay [1] is 0.1 to 1 nM; in assay [2] it was 0.1 to 1 nM; in assay [3], 0.1 to 1 nM; in assay [4], 1 to 10 nM. The IC50 in assay [5] was 10 to 31.6 nM.
With `CCc1cc(O)ccc1-c1ccc2c(-c3nc(C4=CCN(CCN(C)C)CC4)c[nH]3)n[nH]c2c1F` [Example 209], the “JAK2 pKi” value in assay [1] is recorded as “A (A represents a pKi value ≥10 (Ki≤0.1 nM))”. Further, the Ki was 0.1 to 1 nM in assay [2], 0.1 to 1 nM in assay [3] and 1 to 10 nM in assay [4]. Besides, in assay [5], the IC50 is 10 to 31.6 nM.
Turning to `CCc1cc(O)ccc1-c1ccc2c(-c3nc(C4=CCCN(C5COC5)C4)c[nH]3)n[nH]c2c1F` [Example 70], the Ki in assay [1] was 0.1 to 1 nM; in assay [2], 1 to 10 nM; in assay [3], 0.1 to 1 nM; in assay [4] it was 10 to 100 nM. In assay [5], the IC50 was 31.6 to 100 nM.
On to `CCc1cc(O)ccc1-c1ccc2c(-c3nc(C4=CC(C)NC4)c[nH]3)n[nH]c2c1` (centres unmarked) [Example 238], for which the Ki in assay [1] was 0.1 to 1 nM; in assay [2] it was 0.1 to 1 nM; in assay [3] it was 0.1 to 1 nM; in assay [4], 10 to 100 nM. In addition, in assay [5], the IC50 was 3.16 to 10 nM.
For `CCc1cc(O)ccc1-c1ccc2c(-c3nc(C4=CCN(CCO)CC4)c[nH]3)n[nH]c2c1` [Example 33], the “JAK2 pKi” value in assay [1] is recorded as “A (A represents a pKi value ≥10 (Ki≤0.1 nM))”. Also, the “JAK1 pKi” value in assay [2] is reported as “A (A represents a pKi value ≥10 (Ki≤0.1 nM))”. Moreover, the Ki in assay [3] and in assay [4] was 0.1 to 1 nM in each case. For the same compound, the IC50 in assay [5] was 3.16 to 10 nM.
`CCc1cc(O)ccc1-c1ccc2c(-c3nc(C4=CCN(CCO)C4)c[nH]3)n[nH]c2c1` [Example 50]: the “JAK2 pKi” value in assay [1] is “A (A represents a pKi value ≥10 (Ki≤0.1 nM))”. Moreover, the “JAK1 pKi” value in assay [2] is “A (A represents a pKi value ≥10 (Ki≤0.1 nM))”. The Ki in assay [3] and in assay [4] was 0.1 to 1 nM throughout. Further, the IC50 in assay [5] is 3.16 to 10 nM.
Consider `CCc1cc(O)ccc1-c1ccc2c(-c3nc(C4=CCN(C(=O)CN)CC4)c[nH]3)n[nH]c2c1F` [Example 157], for which the “JAK2 pKi” value in assay [1] is on record as “A (A represents a pKi value ≥10 (Ki≤0.1 nM))”. Further, the Ki was 0.1 to 1 nM in assay [2], 0.1 to 1 nM in assay [3] and 1 to 10 nM in assay [4]. Moreover, the IC50 in assay [5] is 31.6 to 100 nM.
Turning to `CCc1cc(O)ccc1-c1ccc2c(-c3nc(C4=CCN(S(=O)(=O)C5CNC5)CC4)c[nH]3)n[nH]c2c1F` [Example 178], the Ki in assay [1] is 0.1 to 1 nM; in assay [2], 1 to 10 nM; in assay [3] it was 1 to 10 nM; in assay [4] it was 10 to 100 nM. Moreover, the IC50 in assay [5] was 100 to 316 nM.
On to `CCc1cc(O)ccc1-c1ccc2c(-c3nc(C4=CCN(CCSC)CC4)c[nH]3)n[nH]c2c1F` [Example 81], for which the “JAK2 pKi” value in assay [1] was “A (A represents a pKi value ≥10 (Ki≤0.1 nM))”. In addition, the Ki in assay [2] was 0.1 to 1 nM; in assay [3], 0.1 to 1 nM; in assay [4], 1 to 10 nM. Moreover, in assay [5], the IC50 was 31.6 to 100 nM.
`CCc1cc(O)ccc1-c1ccc2c(-c3nc(C4=CCCN(C5CCN(C)CC5)C4)c[nH]3)n[nH]c2c1F` [Example 194]: the Ki was 0.1 to 1 nM in assay [1], 0.1 to 1 nM in assay [2], 0.1 to 1 nM in assay [3] and 1 to 10 nM in assay [4]. In addition, the IC50 in assay [5] is 10 to 31.6 nM.
Regarding `CCc1cc(O)ccc1-c1ccc2c(-c3nc(C4=C(C)CNCC4)c[nH]3)n[nH]c2c1` [Example 224], the Ki is 0.1 to 1 nM in assay [1], 0.1 to 1 nM in assay [2], 0.1 to 1 nM in assay [3] and 1 to 10 nM in assay [4]. Also, the IC50 in assay [5] was 3.16 to 10 nM.
Regarding `CCc1cc(O)ccc1-c1ccc2c(-c3nc(C4=CCCN(C)C4)c[nH]3)n[nH]c2c1F` [Example 29], the Ki in assay [1] was 0.1 to 1 nM; in assay [2], 0.1 to 1 nM; in assay [3], 0.1 to 1 nM; in assay [4], 1 to 10 nM. The IC50 in assay [5] was 3.16 to 10 nM.
Turning to `CCc1cc(O)ccc1-c1ccc2c(-c3nc(C4=CCN(C(=O)[C@@H](N)C(C)(C)O)CC4)c[nH]3)n[nH]c2c1F` [Example 158], the Ki in assay [1] is 0.1 to 1 nM; in assay [2] it was 1 to 10 nM; in assay [3], 0.1 to 1 nM; in assay [4], 10 to 100 nM. The IC50 in assay [5] was 31.6 to 100 nM.
As to `CCc1cc(O)ccc1-c1ccc2c(-c3nc(C4=CCN(CCCO)C4)c[nH]3)n[nH]c2c1F` [Example 54], in assay [1], the “JAK2 pKi” value is recorded as “A (A represents a pKi value ≥10 (Ki≤0.1 nM))”. In addition, the “JAK1 pKi” value in assay [2] was “A (A represents a pKi value ≥10 (Ki≤0.1 nM))”. The figures for the Ki in assay [3] and in assay [4] were 0.1 to 1 nM and 1 to 10 nM, respectively. Moreover, the IC50 in assay [5] is 3.16 to 10 nM.
In the case of `CCc1cc(O)ccc1-c1ccc2c(-c3nc(C4=CCN(C)C4)c[nH]3)n[nH]c2c1F` [Example 31], the Ki in assay [1] is 0.1 to 1 nM; in assay [2], 0.1 to 1 nM; in assay [3] it was 0.1 to 1 nM; in assay [4], 1 to 10 nM. In assay [5], the IC50 is 3.16 to 10 nM.
`CCc1cc(O)ccc1-c1ccc2c(-c3nc(C4=CC[C@@H](C)NC4)c[nH]3)n[nH]c2c1` [Example 231]: the “JAK2 pKi” value in assay [1] was “A (A represents a pKi value ≥10 (Ki≤0.1 nM))”. Besides, the Ki in assay [2] is 0.1 to 1 nM; in assay [3] it was 0.1 to 1 nM; in assay [4] it was 1 to 10 nM. The IC50 in assay [5] is 3.16 to 10 nM.
For `CCc1cc(O)ccc1-c1ccc2c(-c3nc(C4=CCN(CCN(C)C)C4)c[nH]3)n[nH]c2c1F` [Example 220], the “JAK2 pKi” value in assay [1] is given as “A (A represents a pKi value ≥10 (Ki≤0.1 nM))”. The Ki in assay [2] is 0.1 to 1 nM; in assay [3], 0.1 to 1 nM; in assay [4], 1 to 10 nM. In addition, in assay [5], the IC50 is 10 to 31.6 nM.
Turning to `CCc1cc(O)ccc1-c1ccc2c(-c3nc(C4=CCN(CCO)C4)c[nH]3)n[nH]c2c1F` [Example 53], the “JAK2 pKi” value in assay [1] was “A (A represents a pKi value ≥10 (Ki≤0.1 nM))”. Further, the “JAK1 pKi” value in assay [2] is reported as “A (A represents a pKi value ≥10 (Ki≤0.1 nM))”. Moreover, the Ki was 0.1 to 1 nM in assay [3] and 1 to 10 nM in assay [4]. The IC50 in assay [5] is 3.16 to 10 nM.
As for `CCc1cc(O)ccc1-c1ccc2c(-c3nc(C4=CCN(C(=O)CN)CC4)c[nH]3)n[nH]c2c1` [Example 152], the “JAK2 pKi” value in assay [1] is recorded as “A (A represents a pKi value ≥10 (Ki≤0.1 nM))”. Besides, the Ki in assay [2] is 0.1 to 1 nM; in assay [3] it was 0.1 to 1 nM; in assay [4] it was 1 to 10 nM. In assay [5], the IC50 is 10 to 31.6 nM.
Turning to `CCOC(=O)C1CC=C(c2c[nH]c(-c3n[nH]c4c(F)c(-c5ccc(O)cc5CC)ccc34)n2)CN1` (centres unmarked) [Example 300], the Ki in assay [1] is 0.1 to 1 nM; in assay [2] it was 0.1 to 1 nM; in assay [3] it was 0.1 to 1 nM; in assay [4] it was 1 to 10 nM. For the same compound, the IC50 in assay [5] was 10 to 31.6 nM.
